Experimental data from BigSolDB 2.1.

Q: Which solubility (mole fraction) (in DMF, 278.15 K) does the source give for CCS(=O)(=O)c1cccnc1S(=O)(=O)NC(=O)Nc1nc(OC)cc(OC)n1 here?
A: 5.64e-05

Q: What about the solubility (mole fraction) (in DMF, 283.15 K) of the same compound?
A: 7.09e-05

Q: What about the solubility (mole fraction) (in DMF, 288.15 K) of the same compound?
A: 8.7e-05

Q: What about the solubility (mole fraction) (in DMF, 293.15 K) of the same compound?
A: 0.000106

Q: What about the solubility (mole fraction) (in DMF, 298.15 K) of the same compound?
A: 0.000125

Q: What about the solubility (mole fraction) (in DMF, 303.15 K) of the same compound?
A: 0.000148

Q: What about the solubility (mole fraction) (in DMF, 308.15 K) of the same compound?
A: 0.000172

Q: What about the solubility (mole fraction) (in DMF, 313.15 K) of the same compound?
A: 0.000199

Q: What about the solubility (mole fraction) (in DMF, 318.15 K) of the same compound?
A: 0.000228

Q: What about the solubility (mole fraction) (in DMF, 323.15 K) of the same compound?
A: 0.000262

Q: What about the solubility (mole fraction) (in ethanol, 278.15 K) of the same compound?
A: 1.91e-05

Q: And the solubility (mole fraction) (in ethanol, 283.15 K)?
A: 2.32e-05

Q: What about the solubility (mole fraction) (in ethanol, 288.15 K) of the same compound?
A: 2.82e-05

Q: And the solubility (mole fraction) (in ethanol, 293.15 K)?
A: 3.4e-05

Q: What about the solubility (mole fraction) (in ethanol, 298.15 K) of the same compound?
A: 4.03e-05

Q: And the solubility (mole fraction) (in ethanol, 303.15 K)?
A: 4.76e-05

Q: What about the solubility (mole fraction) (in ethanol, 308.15 K) of the same compound?
A: 5.52e-05

Q: What about the solubility (mole fraction) (in ethanol, 313.15 K) of the same compound?
A: 6.36e-05

Q: And the solubility (mole fraction) (in ethanol, 318.15 K)?
A: 7.34e-05

Q: What about the solubility (mole fraction) (in ethanol, 323.15 K) of the same compound?
A: 8.5e-05

Q: And the solubility (mole fraction) (in ethylene glycol, 278.15 K)?
A: 7.03e-06

Q: What about the solubility (mole fraction) (in ethylene glycol, 283.15 K) of the same compound?
A: 8.83e-06

Q: And the solubility (mole fraction) (in ethylene glycol, 288.15 K)?
A: 1.07e-05

Q: And the solubility (mole fraction) (in ethylene glycol, 293.15 K)?
A: 1.28e-05

Q: What about the solubility (mole fraction) (in ethylene glycol, 298.15 K) of the same compound?
A: 1.53e-05

Q: And the solubility (mole fraction) (in ethylene glycol, 303.15 K)?
A: 1.79e-05

Q: What about the solubility (mole fraction) (in ethylene glycol, 308.15 K) of the same compound?
A: 2.08e-05

Q: What about the solubility (mole fraction) (in ethylene glycol, 313.15 K) of the same compound?
A: 2.38e-05

Q: And the solubility (mole fraction) (in ethylene glycol, 318.15 K)?
A: 2.76e-05

Q: And the solubility (mole fraction) (in ethylene glycol, 323.15 K)?
A: 3.19e-05

Q: What about the solubility (mole fraction) (in methanol, 278.15 K) of the same compound?
A: 2.17e-05

Q: And the solubility (mole fraction) (in methanol, 283.15 K)?
A: 2.67e-05

Q: What about the solubility (mole fraction) (in methanol, 288.15 K) of the same compound?
A: 3.26e-05

Q: And the solubility (mole fraction) (in methanol, 293.15 K)?
A: 3.96e-05

Q: What about the solubility (mole fraction) (in methanol, 298.15 K) of the same compound?
A: 4.7e-05

Q: And the solubility (mole fraction) (in methanol, 303.15 K)?
A: 5.5e-05

Q: And the solubility (mole fraction) (in methanol, 308.15 K)?
A: 6.37e-05

Q: What about the solubility (mole fraction) (in methanol, 313.15 K) of the same compound?
A: 7.48e-05

Q: And the solubility (mole fraction) (in methanol, 318.15 K)?
A: 8.56e-05

Q: What about the solubility (mole fraction) (in methanol, 323.15 K) of the same compound?
A: 9.85e-05

Q: And the solubility (mole fraction) (in water, 278.15 K)?
A: 2.28e-07

Q: What about the solubility (mole fraction) (in water, 283.15 K) of the same compound?
A: 2.82e-07

Q: What about the solubility (mole fraction) (in water, 288.15 K) of the same compound?
A: 3.44e-07

Q: What about the solubility (mole fraction) (in water, 293.15 K) of the same compound?
A: 4.13e-07

Q: And the solubility (mole fraction) (in water, 298.15 K)?
A: 4.88e-07

Q: And the solubility (mole fraction) (in water, 303.15 K)?
A: 5.76e-07

Q: What about the solubility (mole fraction) (in water, 308.15 K) of the same compound?
A: 6.77e-07

Q: What about the solubility (mole fraction) (in water, 313.15 K) of the same compound?
A: 7.75e-07

Q: And the solubility (mole fraction) (in water, 318.15 K)?
A: 8.96e-07

Q: And the solubility (mole fraction) (in water, 323.15 K)?
A: 1.02e-06
